Results taken from patent US8163870B2, “Channel forming peptides” (Kansas State University Research Foundation, priority 2000, dated 2012).
Where “and” joins values, the source holds several entries; their conditions need not be identical. Equal entries are not always repeated. Where two headings read alike, the source gives them in different places. Non-standard residues stand in square brackets, D forms with d. No end group written: not given here.

Assays:
[1] = biological target: T1, tetrameric channel (four-helix bundle M2GlyR) (Homo sapiens, UniProt P23415); conditions: cited from earlier work
T1 construct: four identical M2GlyR peptide units were tethered to a 9-amino acid carrier template to form a four-helix bundle protein; 9-amino acid carrier template (tethers four peptide units); host or cells: synthetic peptide construct reconstituted in lipid bilayers

[2] = Chemical cross-linking (BS3) and SDS-PAGE, oligomeric state of peptide in solution; type: physicochemical; conditions: SDS-PAGE
Method: Chemical cross-linking: In order to visualize the oligomeric state of the peptide in solution a chemical cross-linking protocol was developed. Calculated amounts of each peptide were weighted out and dissolved in 1 mL of distilled water to make 1 mM stock solutions. A 100 mM stock solution of the chemical crosslinking reagent Bis[Sulfosuccinimidyl]suberate, BS^3, (Pierce Chemical Co., Rockford, Ill.) was prepared in dimethyl sulfoxide (DMSO). […] Sample were allowed to sit at room temperature for 15 minutes. 1-6 μL of 100 mM BS^3 was then added to the previously prepared peptide such that the crosslinking reagent was present in 20-fold excess. The final volume for each reaction was 100 μL. […] Each sample was then vacuum dried. Later dry samples were re-dissolved in 60 μL of distilled water along with 60 μL of a 2×-tricine SDS sample buffer (Novex, San Diego). All samples were then boiled at 100° C. for 5 minutes. 5 μL aliquots of each SDS boiled sample was then loaded into separate lanes of pre-cast, 1.0 mm, 10 well, 10-20% tricine gels (Novex, San Diego). Pre-made Novex tricine-SDS buffer was used in the electrophoresis. The reference well contained 1 μL of MultiMark® multi-colored molecular weight standard (Novex, San Diego). The electrophoresis was carried out at a constant 110 Volts for 90 minutes. […]

MDCK monolayers = assay: Transepithelial electrical resistance (RTE) / conductance (gTE) across MDCK monolayers; type: cell-based, canine; conditions: for effect on transepithelial electrical resistance: upon onset of channel activity
Method: (§1) Transepithelial ion transport was evaluated in a modified Ussing chamber (Model DCV9, Navicyte, San Diego, Calif.). The Ussing chamber's fluid resistance compensation was completed in Ringer solution (composition (in mM) was 120 NaCl, 25 NaHCO3 3.3 KH2HPO4, 0.8 K2HPO4, 1.2 MgCl2, 1.2 CaCl2). For electrical measurements cell monolayers were bathed in Ringer solution maintained at 37° C. and continuously bubbled with 5% CO2:95% O2. The transepithelial membrane potential (Vte) was clamped to zero and the transepithelial short circuit current (Isc), an indicator of net ion transport, was measured continuously with a voltage clamp apparatus (Model 558C, University of Iowa, Department of Bioengineering, Iowa City, Iowa). Data were digitally acquired at 1 Hz with a Macintosh computer (Apple Computer, Cuppertino, Calif.) using Aqknowledge software (ver. 3.2.6, BIOPAC Systems, Santa Barbara, Calif.) with an MP100A-CE interface.
MDCK cell monolayers (in the presence of 1-EBIO to maximize basolateral membrane K^+ conductance) were exposed on the apical aspect to various concentrations of selected peptides as indicated.
In this experiment, the MDCK monolayers were initially incubated with 60 μM of SEQ ID No. 27. When the residual resistance reached approximately 10% of the starting value, the peptide was removed by aspiration and followed by the addition of pre-warmed Ringer solution. This solution was subsequently removed and replaced an additional five times over the next 2 minutes. In this figure, the solid central line represents the measured current at zero mV and the vertical deflections represent the current recorded during periodic 1 mV bipolar pulses. Pulse amplitude is inversely proportional to RTE in accordance with Ohm's law.
Additional experiments have been conducted to test for complete reversibility of peptide-induced changes in RTE. Monolayers were exposed to peptide (60 μM) in an Ussing chamber for ˜20 minutes to document decreases in RTE, recovered and returned to the cell culture incubator for two to five days with the apical and basolateral media refreshed daily before subsequent assessment of basal RTE and responsiveness to peptide. In the previous example, the return of RTE was only followed for hours. In this example, the restoration of RTE was measured over days to determine the minimum time require for full recovery.
Electrical measurements. Transepithelial ion transport was evaluated in modified Ussing chambers (Model DCV9; Navicyte, San Diego, Calif.). For typical electrical measurements of ion flux, cells were bathed in symmetrical Ringer solution (composition in mM: 120 NaCl, 25 NaHCO3, 3.3 KH2HPO4, 0.8 K2HPO4, 1.2 MgCl2, 1.2 CaCl 2; 290±2 mOsmol). The diffusion chambers were maintained at 37° C. and continuously bubbled with 5% CO2/95% O2 to maintain pH, provide aeration and mix the fluid in the chambers. The transepithelial potential (VTE) was clamped to zero, and ISC measured continuously with a voltage-clamp apparatus (Model 558C, University of Iowa, Department of Bioengineering, Iowa City, Iowa). Data were acquired at 1 Hz with a Macintosh computer (Apple Computer, Cuppertino, Calif.) using Aqknowledge software (ver. 3.2.6; BIOPAC Systems, Santa Barbara, Calif.) with an MP100A-CE interface. gTE was determined by exposing the epithelia to a 5 second 1 mV bipolar pulse at 100 second intervals. The recorded current deflections were used with Ohms law to calculate gTE: […]

MDCK cells = type: cell-based, canine
From the text: Cell culture: MDCK cells were a generous gift of Dr. Lawrence Sullivan (Kansas University Medical Center, Kansas City, Kans.). T84 cells were obtained from Dr. Daniel Devor (University of Pittsburgh, Pittsburgh, Pa.). MDCK and T84 cells were maintained with similar culture procedures. The culture medium was a 1:1 mixture of DMEM and Ham's F-12 (Gibco BRL, Grand Island, N.Y.) supplemented with 5% heat inactivated fetal bovine serum (BioWhittaker, Walkersville, Md.), and 1% penicillin and streptomycin (Gibco BRL). Cells were grown in plastic culture flasks in a humidified environment with 5% CO2 at 37° C. and passaged every 5-7 days. For Ussing chamber experiments, cells were plated on 1.13 cm^2 permeable supports (Snapwell™, Costar®, Cambridge, Mass.) at a density of approximately 1×10^6 cells/well and incubated in DMEM/F-12 supplemented with FBS and antibiotics (changed every other day) for 2-3 weeks prior to being mounted in modified Ussing flux chambers.
To form monolayers, the cells were plated onto the upper surface of a permeable membrane that forms the bottom of a plastic well. Two types were used. One was the Transwell™ insert (Costar®, Cambridge, Mass.) supported in a six-well tissue culture plate and the other type was the Snapwell™ (Costar®, Cambridge, Mass.). During incubation, the medium was replaced at 48-72 hour intervals. Confluent monolayers formed within 72 hours. Experiments were performed on the monolayers 6-9 days after the initial plating. Net fluid secretion responses were optimal after six days.
Solutions: Ringer solution was made fresh daily. The final concentration (in mM) was 120 NaCl, 25 NaHCO3 3.3 KH2HPO4, 0.8 K2HPO4, 1.2 MgCl2, 1.2 CaCl2, (290±2 mOsmol). All components of the Ringer solution were from Sigma (St. Louis, Mo.).
as §1, with “Epithelial electrical measurements: Transepithelial” for “Transepithelial”, “(see below).” for “(composition (in mM) was 120 NaCl, 25 NaHCO3 3.3 KH2HPO4, 0.8 K2HPO4, 1.2 MgCl2, 1.2 CaCl2).”
as §1
MDCK cell monolayers (in the presence of 1-EBIO to maximize basolateral membrane K^+ conductance) were exposed on the apical aspect to escelating peptide concentrations. Maximal change in Isc (relative to the Isc prior to peptide exposure) was recorded following each increment in apical peptide concentration. […]

[3] = Circular dichroism in 20% TFE; type: physicochemical; conditions: water containing 20% TFE
Method: Circular dichroism: Circular dichroism spectra were recorded on a Jasco Model J-720 spectropolarimeter in the range 180-250 nm using quartz cuvettes with a 0.2 mm pathlength. Eight scans recorded at a rate of 20 nm/minute were averaged and corrected for contributions of buffer (10 mM HEPES, pH 7.2). […] The molar ellipticity was calculated using d-10-camphorsulfonic acid (290.5=7783° cm2 dmol 1) as a reference (Chen, G. C., and J. T. Yang. 1977. Two point calibration of spectropolarimeter with d-10-camphorsulfonic acid. Anal. Lett. 10:1195-1207.). The line shapes of the spectra were analyzed using a least-square fitting routine by comparison to polylysine standards representing 100%-helix, -turn, or random coil, respectively.

[4] = cited from earlier work

With `O=C(O)c1c2ccccc2cc2ccccc12` [9-AC, 9-anthracene carboxylic acid] as the compound, how does the “block of the tetrameric channel” value [1] read?
The value was “blocked”.

With `O=C(O)c1cccnc1Nc1cccc(C(F)(F)F)c1` [NFA, niflumic acid] as the compound, how does the “block of the tetrameric channel” value [1] read?
Its value is “blocked”.

With `Cc1cccc(C)c1NC(=O)C[N+](C)(C)C` [QX-222] as the compound, how does the “block of the tetrameric channel” value [1] read?
The value was “not blocked”.

Which “aggregation state in solution” value [2] does the source give for “KKKKAARVGL GITTVWVTTI GLGVRAA (KKKKAARVGLGITTVWVTTIGLGVRAA; Modified Homo sapiens) [SEQ ID No. 9]” here?
Its value is “remained in monomer form”.

And the “effect on transepithelial electrical resistance” value (MDCK monolayers)?
The value was “dramatic decrease in transepithelial electrical resistance”.

And the “Activity profile in MDCK cells” value (MDCK cells; peptide at 100 μM)?
Its value is 20.0 μA/cm2.

And the “Activity profile in MDCK cells” value (MDCK cells; peptide at 100 μM, listed as 9)?
Its value is 20.0 at 100 μM μA/cm2.

Which “secondary structure by CD” value [3] does the source give for “KKKKPARVGL GITTVLVTTI GLGVRAA (KKKKPARVGLGITTVLVTTIGLGVRAA; Modified Homo sapiens) [SEQ ID No. 26]” here?
The value was “helical structure”.

What about the “effect on transepithelial electrical resistance” value (MDCK monolayers) of the same compound?
Its value is “dramatic decrease in transepithelial electrical resistance”.

And the “peptide concentration producing maximal effect on Isc (Imax)” value (MDCK cells; MDCK monolayers)?
Its value is 100 µM.

And the “Activity profile in MDCK cells” value (MDCK cells; peptide at 100 μM)?
Its value is 25.7 at 100 μM μA/cm2.

With “KKKKPARVGLGITTVLTMTTQW (Modified Homo sapiens) [SEQ ID No. 54]” as the compound, how does the “effect on transepithelial electrical resistance” value (MDCK monolayers) read?
The value was “dramatic decrease in transepithelial electrical resistance”.

For “KKKKPARVGLGITTVLTMTTRW (Modified Homo sapiens) [SEQ ID No. 55]”, which “decrease in RTE” value (MDCK monolayers; 100 μM) is on record?
Its value is roughly 70%.

And the “decrease in RTE” value (MDCK monolayers; 200 μM)?
Its value is roughly 90%.

And the “effect on transepithelial electrical resistance” value (MDCK monolayers)?
The value was “dramatic decrease in transepithelial electrical resistance”.

For “KKKKPARVGLGITTVLVTTIGLGVRAP [SEQ ID No. 18, KKKKPARVGL GITTVLVTTI GLGVRAP]”, which EC50 (MDCK cells; MDCK monolayers, modified Hill equation fit, read-out: half maximal effect on Isc (EC50 / K1/2)) is on record?
The EC50 was 50 µM.

What about the “effect on isolated cells” value (isolated cells) of the same compound?
Its value is “not harmful to isolated cells”.

Which “secondary structure by CD” value [3] does the source give for “KKKKVTTIGL GVRAPLVTTI GLGVRAA (KKKKVTTIGLGVRAPLVTTIGLGVRAA; Modified Homo sapiens) [SEQ ID No. 5]” here?
The value was “beta-sheet”.

What about the “Activity profile in MDCK cells” value (MDCK cells; peptide at 500 μM) of the same compound?
Its value is less than 1.0 at 500 μM μA/cm2.

Which “transference number for anions” value ([4]; 5-fold KCl concentration gradient) does the source give for “PARVGLGITT VLTMTTQSSG SRA (PARVGLGITTVLTMTTQSSGSRA; listed as Homo sapiens) [SEQ ID No. 1]” here?
Its value is 0.85.

And the single-channel conductance ([4]; symmetric 0.5 M KCl, listed as M2GlyR)?
Its single-channel conductance is 25 pS and 49 pS.

And the “Activity profile in MDCK cells” value (MDCK cells; peptide at 500 μM)?
The value was 1.5 at 500 μM μA/cm2.

With “PARVGLGITTVLVTTIGLGVRAPKKKK [SEQ ID No. 19, PARVGLGITT VLVTTIGLGV RAPKKKK]” as the compound, how does the “effect on isolated cells” value (isolated cells) read?
The value was “cytotoxic effects”.

With “all-D amino acid form of SEQ ID NO. 27: all-D amino acid form of SEQ ID NO. 27 ([dK][dK][dK][dK][dA][dA][dR][dV]G[dL]G[dI][dT][dT][dV][dL][dV][dT][dT][dI]G[dL]G[dV][dR][dA][dA])” as the compound, how does the “concentration triggering conductance increases” value (MDCK monolayers) read?
The value was 40 µM.
